Patent EP1614420A2, “Treatment of hypertension, angina and other disorders using (-) amlodipine” (Sepracor Inc., priority 1992, dated 1993)

Assays:
[1] = system: K+-depolarized isolated guinea pig ileal segment; test: Cardiovascular calcium antagonism, guinea pig ileum (in vitro); type: cell-based; conditions: inhibition of contractile response to added calcium (20 µg/ml of CaCl), Ca-free physiological salt solution, 37° C, reference agents; for IC100: Cavia porcellus, read-out: ED100
Description: Cardiovascular Calcium Antagonism, Guinea Pig Ileum (in vitro):

[2] = system: potassium-depolarized rat aorta; conditions: in vitro; cited from earlier work
β-adrenergic = conditions: L-form versus D-enantiomer; cited from earlier work

Structure (SMILES) | ED100 [1] | IC100 [1] | further results
CC(COc1ccccc1)NC(C)C(O)c1ccc(O)cc1 (stereo not shown) [isoxuprine] | 4 µg/mL |  | 
CN1CCC(=C2c3ccccc3C=Cc3ccccc32)CC1 [cyproheptadine] |  | 0.025 µg/mL | 
Fc1ccc(C(c2ccc(F)cc2)N2CCN(C/C=C/c3ccccc3)CC2)cc1 [flunarizine] |  | 0.1 µg/mL | 
CC(C)[N+]1(C)[C@@H]2CC[C@H]1CC(OC(=O)C(CO)c1ccccc1)C2.[Br-] (stereo partly shown) [ipratropium bromide] | >2 µg/mL |  | 
CCOC(=O)C1=C(COCCN)NC(C)=C(C(=O)OC)C1c1ccccc1Cl (single isomer, unassigned; isomer 3) [(-) isomer, 3-ethyl 5-methyl (-)-2-[(2-aminoethoxy)methyl]-4-(2-chlorophenyl)-1,4-dihydro-6-methyl-3,5-pyridine-dicarboxylate] |  |  | activity relative to the racemic mixture in antagonizing calcium-induced constriction [2]: twice as active as the racemic mixture
C(=C\c1ccccc1)/CN1CCN(C(c2ccccc2)c2ccccc2)CC1 [cinnazrizine] | 1 µg/mL |  | 
CC(C)NC[C@H](O)COc1cccc2ccccc12 |  |  | times more potent than the D-enantiomer (β-adrenergic): 100 times
CN(C)CCOC(c1ccccc1)c1ccccc1 [diphenhydramine] |  | 1 µg/mL | 
CC(CN1c2ccccc2Sc2ccccc21)N(C)C (stereo not shown) [promethazine] |  | 0.25 µg/mL | 
COc1ccc(Cc2nccc3cc(OC)c(OC)cc23)cc1OC [papaverine] |  | 4 µg/mL | 
